Assay results taken from patent US7994399B2, “Methods for the production of stably transformed, fertile Zea mays plants” (BASF Plant Science GmbH, priority 2005, dated 2011).
Marks after values point to notes of the source that are not given here.

Columns and labels:
[1] = test system: Zea mays immature embryos; assay: Agrobacterium-mediated transformation of maize immature embryos, additives in the co-cultivation medium; assay type: cell-based; settings: for Average TE (%) (transformation efficiency): L-cysteine added (+) to co-cultivation medium, split-cob design, drop inoculation
Experimental: Adjust pH media to 5.8 with 1 M NaOH. Weigh 4 g Sigma Purified Agar per bottle (8 g/L) and dispense 500 mL media per bottle, autoclave. When cooled add AgNO3 (stock at 15 mM) to a final concentration of 15 μM and L-cysteine (stock at 150 mg/ml) to a final concentration 300 mg/l. Pour into 100×20 mm Petri plates. Medium containing acetosyringone should be used freshly without long term storage.
Excised immature embryos are directly put on the co-cultivation medium (medium A-3) with the flat side down (scutellum upward). Each plate (20×100 mm plate) can hold up to 100 immature embryos. Put 5 μl of diluted Agrobacterium cell suspension to each immature embryo with a repeat pipettor. Remove excess moisture covering immature embryos by leaving the plate cover open in the hood for about 15 min. Seal the plate with 3M micropore tape and wrap with aluminum foil. Incubate the plate in the dark at 22° C. for 2 to 3 days. Take 3-5 immature embryos for GUS staining if a GUS construct is used to assess transient GUS expression.

XI12 mutant maize lines = settings: cited from earlier work
Maize XA17 mutants = settings: cited from earlier work
[2] = addition to co-cultivation medium, BPS553×(HiIIA×A188) genotypes

SMILES: N[C@@H](CS)C(=O)O [L-Cysteine]
- Effect on transformation efficiency [1, 2]: further enhances transformation efficiency
- Average TE (%) (transformation efficiency) ([1]; hybrid BPS553x(HillAxA188), 20 experiments): 32.2* %
- Average TE (%) (transformation efficiency) ([1]; inbred BPS553, 27 experiments): 9.6* %
- Effect on transformation efficiency ([1]; presence in the co-cultivation medium): significantly increasing transformation efficiency

SMILES: CC(C)C1(C)N=C(c2nc3ccccc3cc2C(=O)O)NC1=O (stereo not drawn) [imazaquin]
- Resistance or sensitivity of the plants to the herbicide (XI12 mutant maize lines): sensitive
- Resistance or tolerance of the plants to the herbicide (Maize XA17 mutants): highly resistant

SMILES: CCc1cnc(C2=NC(C)(C(C)C)C(=O)N2)c(C(=O)O)c1 (stereo not drawn) [imazethapyr]
- Resistance or sensitivity of the plants to the herbicide (XI12 mutant maize lines): highly resistant
- Resistance or tolerance of the plants to the herbicide (Maize XA17 mutants): highly resistant

SMILES: O=[N+]([O-])[O-].[Ag+] [silver nitrate]
- Effect on transformation efficiency [1, 2]: further enhances transformation efficiency
